The source of these data is patent US8834907B2, “Active nanocomposite materials and production method thereof” (Nanobiomatters, S.L., priority 2008, dated 2014).

In the test the test system is Salmonella. The settings on record: used in suspension.

Description: To evaluate the antimicrobial capacity of PLA films, 600 mg of film were weighed, for both control without clay and for the sample with antimicrobial clay, and placed into 10 mL of sterile culture medium. They were stored at 4° C. for four weeks, prior to inoculation with Salmonella spp.

Turning to `O=[N+]([O-])[O-].[Ag+]` [silver nitrate], the “minimum bactericidal concentration (reducing the population to zero)” value is given as “around 100 ppm”.
